Laboratory results as given in patent publication EP3002287B1, “Thiochromeno[2,3-c]quinolin-12-one derivatives and their use as topoisomerase inhibitors” (National Defense Medical Center, priority 2014, dated 2016).

Experiments:
SR = test: NCI in vitro 60-cell drug screen (SRB assay); assay type: cell-based; settings: SR (Leukemia); 10^-5 molar concentration; 48 hours
OVCAR-4 = test: NCI in vitro 60-cell drug screen (SRB assay); assay type: cell-based; settings: OVCAR-4 (Ovarian cancer); 10^-5 molar concentration; 48 hours
BT-549 = test: NCI in vitro 60-cell drug screen (SRB assay); assay type: cell-based; settings: BT-549 (Breast cancer); 10^-5 molar concentration; 48 hours
ACHN = test: NCI in vitro 60-cell drug screen (SRB assay); assay type: cell-based; settings: ACHN (Renal cancer); 10^-5 molar concentration; 48 hours
MCF7 = test: NCI in vitro 60-cell drug screen (SRB assay); assay type: cell-based; settings: MCF7 (Breast cancer); 10^-5 molar concentration; 48 hours
A498 = test: NCI in vitro 60-cell drug screen (SRB assay); assay type: cell-based; settings: A498 (Renal cancer); 10^-5 molar concentration; 48 hours
HL-60(TB) = test: NCI in vitro 60-cell drug screen (SRB assay); assay type: cell-based; settings: HL-60(TB) (Leukemia); 10^-5 molar concentration; 48 hours
SF-539 = test: NCI in vitro 60-cell drug screen (SRB assay); assay type: cell-based; settings: SF-539 (CNS cancer); 10^-5 molar concentration; 48 hours
HOP-62 = test: NCI in vitro 60-cell drug screen (SRB assay); assay type: cell-based; settings: HOP-62 (Non-small cell lung cancer); 10^-5 molar concentration; 48 hours
TK-10 = test: NCI in vitro 60-cell drug screen (SRB assay); assay type: cell-based; settings: TK-10 (Renal cancer); 10^-5 molar concentration; 48 hours
SK-MEL-2 = test: NCI in vitro 60-cell drug screen (SRB assay); assay type: cell-based; settings: SK-MEL-2 (Melanoma); 10^-5 molar concentration; 48 hours
60 cell lines = test: NCI in vitro 60-cell drug screen (SRB assay), whole panel statistics; settings: mean over the cell panel; 10^-5 molar concentration; 48 hours
K-562 = test: NCI in vitro 60-cell drug screen (SRB assay); assay type: cell-based; settings: K-562 (Leukemia); 10^-5 molar concentration; 48 hours
RXF 393 = test: NCI in vitro 60-cell drug screen (SRB assay); assay type: cell-based; settings: RXF 393 (Renal cancer); 10^-5 molar concentration; 48 hours
PC-3 [1] = test: NCI in vitro 60-cell drug screen (SRB assay); assay type: cell-based; settings: PC-3 (Prostate cancer); 10^-5 molar concentration; 48 hours
UO-31 = test: NCI in vitro 60-cell drug screen (SRB assay); assay type: cell-based; settings: UO-31 (Renal cancer); 10^-5 molar concentration; 48 hours
KM12 = test: NCI in vitro 60-cell drug screen (SRB assay); assay type: cell-based; settings: KM12 (Colon cancer); 10^-5 molar concentration; 48 hours
A549/ATCC = test: NCI in vitro 60-cell drug screen (SRB assay); assay type: cell-based; settings: A549/ATCC (Non-small cell lung cancer); 10^-5 molar concentration; 48 hours
NCI-H460 = test: NCI in vitro 60-cell drug screen (SRB assay); assay type: cell-based; settings: NCI-H460 (Non-small cell lung cancer); 10^-5 molar concentration; 48 hours
NCI-H226 = test: NCI in vitro 60-cell drug screen (SRB assay); assay type: cell-based; settings: NCI-H226 (Non-small cell lung cancer); 10^-5 molar concentration; 48 hours
NCI/ADR-RES = test: NCI in vitro 60-cell drug screen (SRB assay); assay type: cell-based; settings: NCI/ADR-RES (Ovarian cancer); 10^-5 molar concentration; 48 hours
PC-3 [2] = test: MTT assay for cell cytotoxicity; assay type: cell-based, human; settings: Homo sapiens, 72 h, at least three independent experiments, read-out: MTT assay (IC50 ± SD) PC-3
Description: (§1) All of synthesis compounds were evaluated cell cytotoxicity by using MTT colorimetric assay on PC-3 and DU-145 cell lines. DU-145 and PC-3 are human hormone-refractory (androgen-independent) prostatic cancer cell lines from American Type Culture Collection (HTB-81™, ATCC, Rockville, MD)^125 and Bioresource Collection and Research Center (60122, BCRC, Taiwan)^126, respectively. Two of the "classical" cell lines were cultivated in RPMI-1640 medium supplemented with 5% fetal bovine serum (v/v), 100 U/mL penicillin, and […] streptomycin. Approximately 2 x 10^3 cells were seeded into each well of a 96-well plate and incubated in 5% CO2 at 37 °C for 24 h. To evaluate the in vitro cytotoxicity, all the synthetic compounds were dissolved in DMSO, prepared immediately before the experiments and diluted into the complete medium before being added to each well of a 96-well plate. Each compound was then added to the culture medium for designated various concentrations (0.15, 0.5, 1.5, 5, 15 µM). After 72 h, an amount of 100 µL of MTT (1 mg/mL) was added to each well, and the samples were incubated at 37 °C for 4 h. After removing the MTT solution, 100 µL of DMSO was added to each well and incubated at 37 °C for another 20 mins. The absorbency at 560 nm was measured by using an ELISA reader.
(§2) Results are expressed as mean values of at least three independent experiments. The IC50 values of testing compounds were described in Table 1. Table1. Effects of 10-Chloro-12H-thiochromeno[2,3-c]quinolin -12-one derivatives on cytotoxicity by MTT assay.

DU-145 = test: MTT assay for cell cytotoxicity; assay type: cell-based, human; settings: Homo sapiens, 72 h, at least three independent experiments, read-out: MTT assay (IC50 ± SD) DU-145
Description: as §1, §2

HS 578T = test: NCI in vitro 60-cell drug screen (SRB assay); assay type: cell-based; settings: HS 578T (Breast cancer); 10^-5 molar concentration; 48 hours
SK-OV-3 = test: NCI in vitro 60-cell drug screen (SRB assay); assay type: cell-based; settings: SK-OV-3 (Ovarian cancer); 10^-5 molar concentration; 48 hours

SMILES | Growth percent (SR) [%] | Growth percent (BT-549) [%] | Growth percent (ACHN) [%] | Growth percent (MCF7) [%] | Growth percent (A498) [%] | Growth percent (HL-60(TB)) [%] | Growth percent (SF-539) [%] | Growth percent (HOP-62) [%] | Growth percent (TK-10) [%] | Growth percent (SK-MEL-2) [%] | Growth percent, Mean (60 cell lines) [%] | Growth percent (K-562) [%] | Growth percent (RXF 393) [%] | Growth percent (PC-3 [1]) [%] | Growth percent (UO-31) [%] | Growth percent (KM12) [%] | Growth percent (A549/ATCC) [%] | Growth percent (NCI-H460) [%] | Growth percent (NCI-H226) [%] | Growth percent (NCI/ADR-RES) [%] | further results
O=c1c2ccc(Cl)cc2sc2c(Cl)nc3ccccc3c12 [Compound 3, 6,9-Dichloro-12H-thiochromeno[2,3-c]quinolin-12-one] | 89.02 | 110.01 | 86.84 | 82.58 | 106.06 | 99.34 | 89.02 | 82.02 | 108.56 | 95.54 | 98.11 | 101.04 | 102.55 | 91.59 | 66.06 | 111.27 | 104.74 | 103.14 | 83.41 | 102.80 | Growth percent (OVCAR-4): 87.91%; IC50 (PC-3 [2]): > 15 µM; IC50 (DU-145): > 15 µM; Growth percent (HS 578T): 95.14%; Growth percent (SK-OV-3): 101.32%
COc1nc2ccccc2c2c(=O)c3cc(Cl)ccc3sc12 [Compound 5, 10-Chloro-6-methoxy-12H-thiochromeno[2,3-c]quinolin-12-one] | 88.18 | 94.85 | 74.89 | 65.39 | 96.29 | 89.47 | 86.13 | 69.64 | 113.30 | 105.52 | 92.10 | 95.83 | 109.68 | 92.46 | 74.69 | 98.03 | 100.46 | 101.23 | 98.57 | 96.10 | IC50 (PC-3 [2]): 3.89 ± 0.54 µM; IC50 (DU-145): 10.8 ± 6.55 µM; Growth percent (HS 578T): 66.51%; Growth percent (SK-OV-3): 58.94%
O=c1c2cc(Cl)ccc2sc2c(N3CCN(CCO)CC3)nc3ccccc3c12 [Compound 10, 10-Chloro-6-(4-(2-hydroxyethyl)piperazin-1-yl)-12H-thiochrom eno[2,3-c]quinolin-12one] | 79.07 | 90.05 | 83.05 | 51.73 | 62.20 | 93.81 | 86.18 | 67.83 | 93.19 | 104.06 | 84.06 | 35.47 | 70.31 | 77.99 | 42.34 | 101.86 | 95.49 | 93.71 | 89.29 | 92.05 | Growth percent (OVCAR-4): 85.35%; IC50 (PC-3 [2]): > 15 µM; IC50 (DU-145): > 15 µM; Growth percent (HS 578T): 76.01%; Growth percent (SK-OV-3): 95.12%
CN(C)c1nc2ccccc2c2c(=O)c3cc(Cl)ccc3sc12 [Compound 6, 10-Chloro-6-dimethylamino-12H-thiochromeno[2,3-c]quinolin-12-one] | 95.68 | 92.96 | 64.81 | 22.19 | 97.06 | 107.16 | 72.72 | 43.62 | 64.75 | 87.26 | 80.59 | 99.71 | 83.17 | 81.25 | 73.81 | 96.40 | 94.16 | 88.86 | 96.20 | 87.86 | IC50 (PC-3 [2]): > 15 µM; IC50 (DU-145): > 15 µM; Growth percent (HS 578T): 60.38%; Growth percent (SK-OV-3): 41.57%
O=c1c2cc(Cl)ccc2sc2c(N3CCN(c4ccccc4)CC3)nc3ccccc3c12 [Compound 12, 10-Chloro-6-(4-phenylpiperazin-1-yl)-12H-thiochromeno[2,3-c] quinolin-12-one] | 103.11 | 123.95 | 94.99 | 74.16 | 81.04 | 113.79 | 100.06 | 86.00 | 112.45 | 104.26 | 99.30 | 112.37 | 107.68 | 90.66 | 63.85 | 113.15 | 98.54 | 103.24 | 87.10 | 100.81 | Growth percent (OVCAR-4): 94.29%; IC50 (PC-3 [2]): > 15 µM; IC50 (DU-145): > 15 µM; Growth percent (HS 578T): 85.20%; Growth percent (SK-OV-3): 100.39%
O=c1c2cc(Cl)ccc2sc2c(O)nc3ccccc3c12 [Compound 4, 10-Chloro-6-hydroxy-12H-thiochromeno[2,3-c]quinolin-12-one] | 96.00 | 85.17 | 95.52 | 69.90 | 107.74 | 109.82 | 93.21 | 90.80 | 113.26 | 103.04 | 97.17 | 107.08 | 116.94 | 91.90 | 76.44 | 102.45 | 95.25 | 96.92 | 99.58 | 96.84 | IC50 (PC-3 [2]): 10.1 ± 1.81 µM; IC50 (DU-145): > 15 µM; Growth percent (HS 578T): 113.28%; Growth percent (SK-OV-3): 94.40%
